Read-outs that look alike come from different tables or passages of the source.
What was measured:
EGFR del19/T790M/C797S = EGFR del19/T790M/C797S (Homo sapiens, UniProt P00533, C797S/DEL746-750/T790M); assay: Biochemical EGFR kinase assay (Lance Ultra TR-FRET), triple mutant del19/T790M/C797S
How it was run: (§1)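 In this biochemical assay, phosphorylation after a one-hour room-temperature reaction was detected with europium-labelled anti-phosphopeptide antibody at 2 nM final concentration.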

EGFR L858R/T790M/C797S = EGFR L858R/T790M/C797S (Homo sapiens, UniProt P00533, C797S/L858R/T790M); assay: Biochemical EGFR kinase assay (Lance Ultra TR-FRET), triple mutant L858R/T790M/C797S
How it was run: as §1

EGFR del19/C797S = EGFR del19/C797S (Homo sapiens, UniProt P00533, C797S/DEL746-750); assay: Biochemical EGFR kinase assay (Lance Ultra TR-FRET), double mutant del19/C797S
How it was run: as §1

EGFR L858R/C797S = EGFR L858R/C797S (Homo sapiens, UniProt P00533, C797S/L858R); assay: Biochemical EGFR kinase assay (Lance Ultra TR-FRET), double mutant L858R/C797S
How it was run: as §1

EGFR wildtype = EGFR wildtype (Homo sapiens, UniProt P00533); assay: Biochemical EGFR kinase assay (Lance Ultra TR-FRET), wildtype
How it was run: as §1

[1] = IC50 del19/T790M/C797S (nM) 100 μM ATP, 100 μM ATP
[2] = Km ATP, read-out: IC50 del19/T790M/C797S (nM) Km ATP
[3] = IC50 L858R/T790M/C797S (nM) 100 μM ATP, 100 μM ATP
[4] = Km ATP, read-out: IC50 L858R/T790M/C797S (nM) Km ATP
[5] = IC50 del19/C797S (nM) 100 μM ATP, 100 μM ATP
[6] = Km ATP, read-out: IC50 del19/C797S (nM) Km ATP
[7] = IC50 L858R/C797S (nM) 100 μM ATP, 100 μM ATP
[8] = Km ATP, read-out: IC50 L858R/C797S (nM) Km ATP
[9] = IC50 WT (nM) 100 μM ATP, 100 μM ATP
[10] = Km ATP, read-out: IC50 WT (nM) Km ATP

EGFR del19/C797S, sequence (P00533 with tags, fused parts or gaps DEL746-750/C797S): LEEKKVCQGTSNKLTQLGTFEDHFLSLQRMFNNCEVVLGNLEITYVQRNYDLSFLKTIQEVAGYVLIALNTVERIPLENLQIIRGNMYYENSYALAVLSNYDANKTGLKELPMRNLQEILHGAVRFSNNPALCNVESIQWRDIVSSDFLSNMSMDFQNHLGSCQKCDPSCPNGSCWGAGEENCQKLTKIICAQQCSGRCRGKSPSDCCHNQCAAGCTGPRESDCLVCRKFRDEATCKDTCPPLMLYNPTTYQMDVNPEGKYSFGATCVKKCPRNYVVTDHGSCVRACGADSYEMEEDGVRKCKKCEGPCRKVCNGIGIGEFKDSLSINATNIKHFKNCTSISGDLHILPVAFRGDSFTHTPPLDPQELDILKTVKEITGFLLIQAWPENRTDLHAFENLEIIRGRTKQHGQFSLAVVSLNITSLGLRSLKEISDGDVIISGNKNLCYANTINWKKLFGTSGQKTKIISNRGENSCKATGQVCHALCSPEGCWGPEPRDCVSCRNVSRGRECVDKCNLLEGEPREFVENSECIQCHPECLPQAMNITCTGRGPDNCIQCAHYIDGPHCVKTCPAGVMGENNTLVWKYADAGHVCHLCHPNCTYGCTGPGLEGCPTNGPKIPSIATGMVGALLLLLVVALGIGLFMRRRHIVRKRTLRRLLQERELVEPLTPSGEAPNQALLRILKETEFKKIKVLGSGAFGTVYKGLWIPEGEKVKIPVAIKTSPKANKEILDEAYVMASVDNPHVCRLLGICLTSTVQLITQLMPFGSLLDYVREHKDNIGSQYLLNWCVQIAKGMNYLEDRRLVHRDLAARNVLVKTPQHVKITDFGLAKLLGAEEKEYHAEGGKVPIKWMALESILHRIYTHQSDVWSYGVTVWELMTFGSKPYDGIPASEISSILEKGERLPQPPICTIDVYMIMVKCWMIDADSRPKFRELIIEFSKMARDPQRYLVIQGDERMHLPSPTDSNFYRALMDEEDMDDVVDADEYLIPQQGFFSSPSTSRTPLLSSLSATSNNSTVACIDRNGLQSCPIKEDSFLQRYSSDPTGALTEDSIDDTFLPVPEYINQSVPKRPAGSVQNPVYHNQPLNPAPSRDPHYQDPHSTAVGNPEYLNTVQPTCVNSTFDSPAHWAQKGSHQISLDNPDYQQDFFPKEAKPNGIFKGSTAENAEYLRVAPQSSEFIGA
EGFR L858R/T790M/C797S, sequence (P00533 25-1210 T790M/C797S/L858R): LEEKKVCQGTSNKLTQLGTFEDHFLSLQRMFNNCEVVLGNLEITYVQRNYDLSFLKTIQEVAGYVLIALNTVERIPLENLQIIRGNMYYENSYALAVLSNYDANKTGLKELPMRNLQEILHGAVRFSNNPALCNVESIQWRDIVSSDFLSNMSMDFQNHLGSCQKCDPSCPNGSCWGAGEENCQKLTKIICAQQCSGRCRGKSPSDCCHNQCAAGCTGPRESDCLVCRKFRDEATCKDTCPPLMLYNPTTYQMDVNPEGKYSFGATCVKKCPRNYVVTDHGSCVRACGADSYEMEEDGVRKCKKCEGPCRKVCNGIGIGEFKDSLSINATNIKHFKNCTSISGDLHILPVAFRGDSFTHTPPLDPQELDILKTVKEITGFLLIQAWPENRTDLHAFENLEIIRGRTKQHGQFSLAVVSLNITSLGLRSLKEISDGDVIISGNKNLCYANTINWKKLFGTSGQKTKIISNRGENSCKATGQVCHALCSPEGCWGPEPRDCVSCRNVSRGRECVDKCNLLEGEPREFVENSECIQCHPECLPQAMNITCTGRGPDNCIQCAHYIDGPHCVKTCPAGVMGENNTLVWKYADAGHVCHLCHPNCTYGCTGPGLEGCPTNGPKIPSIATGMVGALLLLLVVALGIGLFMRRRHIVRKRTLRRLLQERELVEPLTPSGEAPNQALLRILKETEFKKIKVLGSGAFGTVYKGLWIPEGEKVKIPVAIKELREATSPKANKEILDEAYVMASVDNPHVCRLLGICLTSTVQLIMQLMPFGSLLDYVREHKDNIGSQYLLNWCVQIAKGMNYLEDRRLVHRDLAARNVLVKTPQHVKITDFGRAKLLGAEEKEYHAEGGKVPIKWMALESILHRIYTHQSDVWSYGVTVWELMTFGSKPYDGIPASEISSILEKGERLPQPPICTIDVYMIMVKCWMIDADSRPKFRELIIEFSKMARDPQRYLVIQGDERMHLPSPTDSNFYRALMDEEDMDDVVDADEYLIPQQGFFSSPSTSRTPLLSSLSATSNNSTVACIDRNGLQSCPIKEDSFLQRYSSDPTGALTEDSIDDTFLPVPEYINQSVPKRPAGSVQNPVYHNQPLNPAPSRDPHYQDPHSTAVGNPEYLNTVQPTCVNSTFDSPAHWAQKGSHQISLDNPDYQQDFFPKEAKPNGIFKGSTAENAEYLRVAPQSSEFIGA
EGFR del19/T790M/C797S, sequence (P00533 with tags, fused parts or gaps DEL746-750/T790M/C797S): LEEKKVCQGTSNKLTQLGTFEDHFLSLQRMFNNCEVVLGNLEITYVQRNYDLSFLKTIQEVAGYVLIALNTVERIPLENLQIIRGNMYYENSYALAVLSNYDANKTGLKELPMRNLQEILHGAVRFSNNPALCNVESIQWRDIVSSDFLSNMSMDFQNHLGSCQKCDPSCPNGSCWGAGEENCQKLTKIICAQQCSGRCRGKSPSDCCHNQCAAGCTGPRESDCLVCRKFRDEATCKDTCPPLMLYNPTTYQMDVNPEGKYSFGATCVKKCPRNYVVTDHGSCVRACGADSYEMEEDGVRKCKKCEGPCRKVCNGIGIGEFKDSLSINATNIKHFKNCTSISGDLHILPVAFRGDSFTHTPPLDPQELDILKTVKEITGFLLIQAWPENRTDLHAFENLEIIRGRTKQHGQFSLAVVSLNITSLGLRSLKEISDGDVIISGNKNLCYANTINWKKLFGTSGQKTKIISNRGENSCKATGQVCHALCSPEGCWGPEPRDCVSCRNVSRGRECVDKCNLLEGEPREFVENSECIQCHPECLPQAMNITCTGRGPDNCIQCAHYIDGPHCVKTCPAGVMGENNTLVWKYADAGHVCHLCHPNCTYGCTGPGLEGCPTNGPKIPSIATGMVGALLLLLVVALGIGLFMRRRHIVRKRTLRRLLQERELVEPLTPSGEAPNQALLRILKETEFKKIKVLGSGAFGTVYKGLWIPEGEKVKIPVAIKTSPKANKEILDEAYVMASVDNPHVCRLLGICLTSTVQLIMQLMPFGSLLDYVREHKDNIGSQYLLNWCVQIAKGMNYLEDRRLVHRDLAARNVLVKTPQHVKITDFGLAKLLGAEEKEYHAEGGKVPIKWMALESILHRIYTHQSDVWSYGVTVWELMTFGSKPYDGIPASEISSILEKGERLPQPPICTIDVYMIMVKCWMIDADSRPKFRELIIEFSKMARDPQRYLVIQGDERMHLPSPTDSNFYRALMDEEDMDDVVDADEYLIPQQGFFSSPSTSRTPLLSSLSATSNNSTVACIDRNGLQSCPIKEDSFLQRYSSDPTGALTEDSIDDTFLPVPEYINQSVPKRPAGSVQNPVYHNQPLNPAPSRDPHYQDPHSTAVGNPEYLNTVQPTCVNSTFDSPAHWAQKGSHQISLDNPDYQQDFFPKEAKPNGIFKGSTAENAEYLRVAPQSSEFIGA
EGFR wildtype, sequence (P00533 25-1210): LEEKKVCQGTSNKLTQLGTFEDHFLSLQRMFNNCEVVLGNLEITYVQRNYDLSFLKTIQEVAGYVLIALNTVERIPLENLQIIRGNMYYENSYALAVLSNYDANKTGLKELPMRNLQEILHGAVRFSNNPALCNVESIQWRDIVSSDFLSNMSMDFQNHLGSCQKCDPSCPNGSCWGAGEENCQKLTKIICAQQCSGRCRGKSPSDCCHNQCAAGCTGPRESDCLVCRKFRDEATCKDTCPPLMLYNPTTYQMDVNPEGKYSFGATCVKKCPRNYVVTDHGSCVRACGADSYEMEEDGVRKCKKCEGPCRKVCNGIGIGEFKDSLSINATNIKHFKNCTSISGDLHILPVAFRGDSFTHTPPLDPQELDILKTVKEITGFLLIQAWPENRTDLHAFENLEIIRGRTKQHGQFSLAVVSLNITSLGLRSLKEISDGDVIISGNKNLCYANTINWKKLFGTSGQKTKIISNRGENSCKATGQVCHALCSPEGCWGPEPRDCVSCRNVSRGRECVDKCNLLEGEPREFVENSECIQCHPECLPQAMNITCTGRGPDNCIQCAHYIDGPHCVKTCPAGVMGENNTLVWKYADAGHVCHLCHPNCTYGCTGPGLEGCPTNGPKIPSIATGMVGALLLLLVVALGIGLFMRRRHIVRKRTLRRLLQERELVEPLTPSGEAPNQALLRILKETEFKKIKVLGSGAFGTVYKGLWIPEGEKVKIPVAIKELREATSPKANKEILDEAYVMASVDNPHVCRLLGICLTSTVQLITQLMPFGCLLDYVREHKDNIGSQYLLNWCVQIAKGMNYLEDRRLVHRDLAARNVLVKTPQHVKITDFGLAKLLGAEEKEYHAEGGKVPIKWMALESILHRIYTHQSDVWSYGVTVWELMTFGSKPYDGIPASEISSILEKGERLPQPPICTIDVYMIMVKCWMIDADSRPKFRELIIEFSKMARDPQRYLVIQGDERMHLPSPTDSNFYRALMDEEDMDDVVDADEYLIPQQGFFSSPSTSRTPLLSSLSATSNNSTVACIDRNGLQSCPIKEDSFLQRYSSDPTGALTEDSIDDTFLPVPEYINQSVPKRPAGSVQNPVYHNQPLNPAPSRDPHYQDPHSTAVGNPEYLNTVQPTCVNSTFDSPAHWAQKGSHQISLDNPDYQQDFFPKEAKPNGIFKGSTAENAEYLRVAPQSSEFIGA

Row | Structure (SMILES) | IC50 (EGFR del19/T790M/C797S; [1]) | IC50 (EGFR del19/T790M/C797S; [2]) | IC50 (EGFR L858R/T790M/C797S; [3]) | IC50 (EGFR L858R/T790M/C797S; [4]) | IC50 (EGFR del19/C797S; [5]) | IC50 (EGFR del19/C797S; [6]) | IC50 (EGFR L858R/C797S; [7]) | IC50 (EGFR L858R/C797S; [8]) | IC50 (EGFR wildtype; [9]) | IC50 (EGFR wildtype; [10])
1 | CN1CCN(c2ccc(-c3cnc(Nc4ccnc(-c5cnn(S(=O)(=O)C6CC6)c5)n4)cc3N[C@H]3CC[C@@H](CO)CC3)nc2)CC1 [Example 85, ((1s,4s)-4-((6′-((2-(1-(cyclopropylsulfonyl)-1H-pyrazol-4-yl)pyrimidin-4-yl)amino)-5-(4-methylpiperazin-1-yl)-[2,3′-bipyridin]-4′-yl)amino)cyclohexyl)methanol] | 0.4 nM | 0.4 nM | 0.3 nM | 0.1 nM | 0.3 nM | 0.1 nM | 0.2 nM | 0.1 nM | 31.7 nM | 0.2 nM
2 | CC(C)(O)c1ccc(-c2cnc(Nc3ccnc(-c4cnn(S(=O)(=O)C5CC5)c4)n3)cc2N[C@H]2CC[C@@](C)(O)CC2)nn1 [Example 86, (1s,4s)-4-((2-((2-(1-(Cyclopropylsulfonyl)-1H-pyrazol-4-yl)pyrimidin-4-yl)amino)-5-(6-(2-hydroxypropan-2-yl)pyridazin-3-yl)pyridin-4-yl)amino)-1-methylcyclohexan-1-ol] | 1.6 nM | 0.2 nM | 0.2 nM | 0.1 nM | 0.4 nM | 0.3 nM | 11.4 nM | 0.4 nM | 1480 nM | 3.6 nM
3 | CC(C)(O)c1ccc(-c2cnc(Nc3ccnc(-c4cnn(S(=O)(=O)C5CC5)c4)n3)cc2N[C@H]2CC[C@@H](CO)CC2)nn1 [Example 87, 2-(6-(6-((2-(1-(Cyclopropylsulfonyl)-1H-pyrazol-4-yl)pyrimidin-4-yl)amino)-4-(((1s,4s)-4-(hydroxymethyl)cyclohexyl)amino)pyridin-3-yl)pyridazin-3-yl)propan-2-ol] | 5.9 nM | 0.1 nM | 0.1 nM | 0.1 nM | 0.5 nM | 0.4 nM | 4.7 nM | 0.6 nM | 992 nM | 2.2 nM
4 | COC1CN(c2ccc(-c3cnc(Nc4ccnc(-c5cnn(S(=O)(=O)C6CC6)c5)n4)cc3N[C@H]3CC[C@@H](CO)CC3)nc2)C1 [Example 91, ((1s,4s)-4-((6′-((2-(1-(Cyclopropylsulfonyl)-1H-pyrazol-4-yl)pyrimidin-4-yl)amino)-5-(3-methoxyazetidin-1-yl)-[2,3′-bipyridin]-4′-yl)amino)cyclohexyl)methanol] | 1.3 nM | 0.5 nM | 1.1 nM | 0.9 nM | 2.8 nM | 0.9 nM | 9.7 nM | 0.8 nM | > 10000 nM | 2.5 nM
5 | O=S(=O)(C1CC1)n1cc(-c2nccc(Nc3cc(N[C@H]4CC[C@@H](CCO)CC4)c(-c4ccc(C(F)F)cn4)cn3)n2)cn1 [Example 94, 2-((1s,4s)-4-((6′-((2-(1-(Cyclopropylsulfonyl)-1H-pyrazol-4-yl)pyrimidin-4-yl)amino)-5-(difluoromethyl)-[2,3′-bipyridin]-4′-yl)amino)cyclohexyl)ethan-1-ol] | 4.4 nM | 2.7 nM |  | 0.9 nM | 13.3 nM | 3.9 nM | 170 nM | 6 nM | > 10000 nM | 7.2 nM
6 | O=S(=O)(C1CC1)n1cc(-c2nccc(Nc3cc(N[C@H]4CC[C@H](CCO)CC4)c(-c4ccc(C(F)F)cn4)cn3)n2)cn1 [Example 95, 2-((1r,4r)-4-((6′-((2-(1-(Cyclopropylsulfonyl)-1H-pyrazol-4-yl)pyrimidin-4-yl)amino)-5-(difluoromethyl)-[2,3′-bipyridin]-4′-yl)amino)cyclohexyl)ethan-1-ol] | 5.6 nM | 2.5 nM | 2 nM | 0.9 nM | 1540 nM | 66.9 nM | 9160 nM | 8480 nM | > 10000 nM | 222 nM
7 | O=S(=O)(C1CC1)n1cc(-c2nccc(Nc3cc(N[C@H]4CC[C@H](CCO)CC4)c(-c4cc(C(F)F)ccn4)cn3)n2)cn1 [Example 96, 2-((1r,4r)-4-((6′-((2-(1-(Cyclopropylsulfonyl)-1H-pyrazol-4-yl)pyrimidin-4-yl)amino)-4-(difluoromethyl)-[2,3′-bipyridin]-4′-yl)amino)cyclohexyl)ethan-1-ol] | 2 nM |  | 0.8 nM | 0.7 nM | 224 nM | 68 nM | 2220 nM | 27.4 nM | > 10000 nM | 84.7 nM

Further compounds by falling IC50 (EGFR del19/T790M/C797S; [1]), results first:

Row | IC50 (EGFR del19/T790M/C797S; [1]) | IC50 (EGFR del19/T790M/C797S; [2]) | IC50 (EGFR L858R/T790M/C797S; [3]) | IC50 (EGFR L858R/T790M/C797S; [4]) | IC50 (EGFR del19/C797S; [5]) | IC50 (EGFR del19/C797S; [6]) | IC50 (EGFR L858R/C797S; [7]) | IC50 (EGFR L858R/C797S; [8]) | IC50 (EGFR wildtype; [9]) | IC50 (EGFR wildtype; [10]) | Structure (SMILES)
8 | 4.9 nM | 0.4 nM | 0.4 nM | 0.1 nM | 2.2 nM |  | 31.1 nM |  | > 10000 nM | 15.3 nM | CC(C)(O)c1ccc(-c2cnc(Nc3ccnc(-c4cnn(S(=O)(=O)C5CC5)c4)n3)cc2N[C@H]2CC[C@@H](C(C)(C)O)CC2)nn1 [Example 88, 2-(6-(6-((2-(1-(Cyclopropylsulfonyl)-1H-pyrazol-4-yl)pyrimidin-4-yl)amino)-4-(((1s,4s)-4-(2-hydroxypropan-2-yl)cyclohexyl)amino)pyridin-3-yl)pyridazin-3-yl)propan-2-ol]
9 | 2.2 nM | 2.1 nM | 1 nM | 0.5 nM | 6 nM | 2.3 nM | 52.6 nM | 2 nM | > 10000 nM | 7.4 nM | O=S(=O)(C1CC1)n1cc(-c2nccc(Nc3cc(N[C@H]4CC[C@@H](CCO)CC4)c(-c4cc(C(F)F)ccn4)cn3)n2)cn1 [Example 97, 2-((1s,4s)-4-((6′-((2-(1-(Cyclopropylsulfonyl)-1H-pyrazol-4-yl)pyrimidin-4-yl)amino)-4-(difluoromethyl)-[2,3′-bipyridin]-4′-yl)amino)cyclohexyl)ethan-1-ol]
10 | 1.6 nM | 1 nM | 2.3 nM | 1.4 nM | 7.2 nM | 4.4 nM | 78.8 nM | 4.7 nM | 172 nM | 0.1 nM | COC1CN(c2ccc(-c3cnc(Nc4ccnc(-c5cnn(S(=O)(=O)C6CC6)c5)n4)cc3N[C@H]3CC[C@@H](C(C)(C)O)CC3)nc2)C1 [Example 92, 2-((1s,4s)-4-((6′-((2-(1-(Cyclopropylsulfonyl)-1H-pyrazol-4-yl)pyrimidin-4-yl)amino)-5-(3-methoxyazetidin-1-yl)-[2,3′-bipyridin]-4′-yl)amino)cyclohexyl)propan-2-ol]
11 | 0.5 nM | 0.4 nM | 0.2 nM | 0.1 nM | 0.3 nM |  | 1.9 nM |  | 152 nM |  | CC(C)(O)[C@H]1CC[C@@H](Nc2cc(Nc3ccnc(-c4cnn(S(=O)(=O)C5CC5)c4)n3)ncc2-c2ccc(CN3CCC(O)CC3)cn2)CC1 [Example 98, 1-((6′-((2-(1-(Cyclopropylsulfonyl)-1H-pyrazol-4-yl)pyrimidin-4-yl)amino)-4′-(((1s,4s)-4-(2-hydroxypropan-2-yl)cyclohexyl)amino)-[2,3′-bipyridin]-5-yl)methyl) piperidin-4-ol]
12 | 0.4 nM | 0.6 nM | 0.4 nM | 0.3 nM | 0.9 nM | 0.4 nM | 15.1 nM | 0.4 nM | 406 nM | 0.4 nM | COC1CN(c2ccc(-c3cnc(Nc4ccnc(-c5cnn(S(=O)(=O)C6CC6)c5)n4)cc3N[C@H]3CC[C@@](C)(O)CC3)nc2)C1 [Example 90, (1s,4s)-4-((6′-((2-(1-(Cyclopropylsulfonyl)-1H-pyrazol-4-yl)pyrimidin-4-yl)amino)-5-(3-methoxyazetidin-1-yl)-[2,3′-bipyridin]-4′-yl)amino)-1-methylcyclohexan-1-ol]
13 | 0.4 nM | 0.3 nM | 0.3 nM | 0.1 nM | 0.5 nM | 0.2 nM | 2.2 nM | 0.3 nM | 172 nM | 0.1 nM | COC1CN(c2ccc(-c3cnc(Nc4ccnc(-c5cnn(S(=O)(=O)C6CC6)c5)n4)cc3N[C@H]3CC[C@@H](CN(C)C)CC3)nc2)C1 [Example 93, N^6′-(2-(1-(Cyclopropylsulfonyl)-1H-pyrazol-4-yl)pyrimidin-4-yl)-N^4′-((1s,4s)-4-((dimethylamino)methyl)cyclohexyl)-5-(3-methoxyazetidin-1-yl)-[2,3′-bipyridine]-4′,6′-diamine]
14 | 0.1 nM | 0.1 nM | 0.1 nM | 0.1 nM | 0.1 nM | 0.3 nM | 3.9 nM | 0.2 nM | 1640 nM | 2.7 nM | CN(C)C[C@H]1CC[C@@H](Nc2cc(Nc3ccnc(-c4cnn(S(=O)(=O)C5CC5)c4)n3)ncc2-c2ccc(C(C)(C)O)nn2)CC1 [Example 89, 2-(6-(6-((2-(1-(Cyclopropylsulfonyl)-1H-pyrazol-4-yl)pyrimidin-4-yl)amino)-4-(((1s,4s)-4-((dimethylamino)methyl)cyclohexyl)amino)pyridin-3-yl)pyridazin-3-yl)propan-2-ol]
